Assay results taken from patent US20090163451A1, “METHODS FOR TREATING VISCERAL PAIN” (priority 2007, published 2009).
“Also recorded” adds a separate entry of the source.

Assays:
[1] = target: β-2 adrenergic receptors (Homo sapiens, UniProt P07550); settings: reported; cited from earlier work
[2] = tested on: rats with experimental colonic hypersensitivity (butyrate), referred lumbar hypersensitivity; assay: colonic hypersensitivity model (intracolonic sodium butyrate): referred lumbar hypersensitivity, von Frey mechanical threshold; assay type: in vivo, Sprague Dawley rats; settings: for behavior of rats previously injected with intracolonic vehicle: control rats
Method: (§1) Adult male Sprague Dawley rats (Harlan, Indianapolis, Ind.), weighing 150-200 g, were maintained in a climate-controlled room with ad lib food and water on a 12 hour/12 hour light/dark cycle (lights on at 07:00 hours). All procedures followed the policies of the International Association for the Study of Pain and the NIH guidelines for the handling and use of laboratory animals. Studies were approved by the University of Arizona IACUC.
(§2) Dibutyltin dichloride (DBTC) was obtained from Sigma-Aldrich (Milwaukee, Wis.) and dissolved in 100% ethanol to a concentration of 8 mg/kg (Sparmann et al., Gastroenterology. 112:1664-1672 (1997))). Sumatriptan succinate was obtained from Toronto Research Chemicals (ON, Canada) and dissolved in saline to 1, 3, and 10 μg for RVM microinjections and 100, 200, and 300 μg/kg for systemic injections (Kayser et al., Br J Pharmacol. 137:1287-1297 (2002)). The 5HT1B antagonist isamoltane and the 5HT1D antagonist BRL15722 were obtained from Tocris (Elllisville, Mo.). Isamoltane was dissolved in saline to a concentration of 3 μg for RVM microinjection and to a concentration of 4 mg/kg (Ottani et al., Eur J Pharmacol. 497:181-186 (2004)) for system application. BRL15722 was dissolved in 10% DMSO to a concentration of 3 μg for RVM microinjection and to a concentration of 0.3 mg/kg (Ottani et al., Eur J Pharmacol. 497:181-186 (2004)) for systemic application.
(§3) For the experiments involving microinjection of drugs into the RVM, rats underwent surgeries to implant RVM cannulae. After five days of recovery, rats received either intravenous injection of DBTC to induce pancreatitis, or intracolonic injection of sodium butyrate to induce colonic hypersensitivity. Animals were monitored for development of visceral hypersensitivity on the subsequent days. On day six after either induction of pancreatitis or colonic hypersensitivity, animals underwent baseline behavioral measurements. Sumatriptan was microinjected into the RVM at different doses (separate groups of rats for each dose) and animals were monitored behaviorally for two h after sumatriptan application in the RVM. For experiments investigating the effects of serotonin antagonists, the drugs were microinjected concurrently with injection of sumatriptan and animals were monitored for the subsequent two h. Separate groups of animals were microinjected with the antagonists alone to control for possible effects of the drugs by themselves.
(§4) For the experiments involving systemic drug administration, rats received intravenous injection of DBTC to induce pancreatitis or intracolonic injection of sodium butyrate to induce colonic hypersensitivity. On day six after either induction of pancreatitis of colonic hypersensitivity, animals underwent baseline behavioral measurements. Sumatriptan was injected intraperitoneally at different doses (separate groups of rats for each dose) and the animals were monitored behaviorally every 20 min for two h after injection. For experiments investigating the effects of serotonin antagonists, the drugs were injected intraperitoneally immediately following the injection of sumatriptan (separate groups for each respective antagonist). Separate groups of animals were injected with the antagonists alone. Additionally, separate groups of animals were injected with sumatriptan systemically and microinjected with the antagonists in the RVM to determine if the RVM is a site of action for systemically applied sumatriptan. The microinjection of antagonists into the RVM was done immediately following the systemic injection of sumatriptan. All animals were tested for behavioral signs of hypersensitivity every 20 min for two h after the end of the injections.
Colonic hypersensitivity was induced by enemas of a sodium butyrate solution ([…]) twice daily for 3 days (Bourdu et al., Gastroenterology. 128:1996-2008 (2005)). […]

[3] = tested on: rats with experimental pancreatitis (DBTC), referred abdominal hypersensitivity; assay: experimental pancreatitis model (IV DBTC): referred abdominal hypersensitivity, withdrawals to von Frey filament; assay type: in vivo, Sprague Dawley rats
Method: as §1, §2
as §3, with “Sumatriptan was microinjected into the RVM at different doses (separate groups of rats for each dose) and animals were monitored behaviorally for two h after sumatriptan application in the RVM.” left out
as §4, with “Sumatriptan was injected intraperitoneally at different doses (separate groups of rats for each dose) and the animals were monitored behaviorally every 20 min for two h after injection. For experiments investigating the effects of serotonin antagonists, the drugs were injected intraperitoneally immediately following the injection of sumatriptan (separate groups for each respective antagonist).” left out
Pancreatitis was produced by a tail vein injection of dibutyltin dichloride (DBTC, Aldrich, Milwaukee, Wis., 0.25 cc) dissolved in 100% ethanol at a dose of 8 mg/kg under isofluorane anesthesia (2-3 liters/min, 4.0%/vol until anesthetized, then 2.5%/vol throughout the procedure; Vera-Portocarrero et al., Gastroenterology. 130:2155-2164 (2006)). Control animals were injected with the vehicle solution only (100% ethanol, 0.25 mL).
Referred abdominal hypersensitivity in the pancreatitis model was quantified by measuring the number of withdrawal events evoked by application of a calibrated von Frey filament (determined by either abdominal withdrawal, licking of the abdominal area, or whole body withdrawal). Rats were placed inside Plexiglas boxes on an elevated fine fiberglass screen mesh and acclimated for 30 minutes before testing. […]

[4] = tested on: rats with experimental colonic hypersensitivity (butyrate), referred lumbar hypersensitivity; assay: colonic hypersensitivity model (intracolonic sodium butyrate): referred lumbar hypersensitivity, von Frey mechanical threshold; assay type: in vivo, Sprague Dawley rats; settings: 10 μg IV, up to 120 minutes postinjection, data not shown
[5] = tested on: capsaicin-induced hyperemia in the sciatic nerve; settings: Zochodne and Ho; cited from earlier work
[6] = tested on: evoked release of calcitonin gene-related peptide from the rat isolated spinal cord; settings: rat isolated spinal cord (Arvieu et al.); cited from earlier work
[7] = tested on: thermal hypersensitivity induced by intraplantar injection of carrageenan; settings: injected systemically at similar doses used in the present study (Bingham et al.); cited from earlier work
[8] = tested on: acetic acid-induced abdominal writhing in mice; settings: mice (Ghelardini et al.; Jain et al.); cited from earlier work
[9] = RVM microinjection, butyrate rats

Chain of β-2 adrenergic receptors (P07550 whole entry): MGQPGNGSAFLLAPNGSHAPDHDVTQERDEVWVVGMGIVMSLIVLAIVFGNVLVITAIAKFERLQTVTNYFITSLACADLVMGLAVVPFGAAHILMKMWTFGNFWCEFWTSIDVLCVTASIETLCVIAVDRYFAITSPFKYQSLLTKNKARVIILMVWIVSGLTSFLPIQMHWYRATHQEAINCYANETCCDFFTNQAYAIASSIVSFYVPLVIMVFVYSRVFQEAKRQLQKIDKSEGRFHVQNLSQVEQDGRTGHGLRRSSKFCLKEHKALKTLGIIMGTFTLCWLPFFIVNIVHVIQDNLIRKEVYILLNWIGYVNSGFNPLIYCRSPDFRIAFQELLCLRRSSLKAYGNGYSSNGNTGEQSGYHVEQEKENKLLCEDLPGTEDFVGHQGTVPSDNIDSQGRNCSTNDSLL

CC(C)NCC(O)COc1ccccc1-n1cccc1 (stereo not drawn) [isamoltane]
activity at β-2 adrenergic receptors [1]: reported to have activity at β-2 adrenergic receptors | effect of concurrent RVM antagonist on the effect of RVM sumatriptan ([2]; sumatriptan 10 μg RVM, antagonist 3 μg RVM, butyrate rats): blocked the effects of sumatriptan; also recorded: blocked the effect of RVM sumatriptan | effect of RVM antagonist on the effect of systemic sumatriptan ([2]; sumatriptan 300 μg/kg IP, antagonist 3 μg RVM, butyrate rats): failed to antagonize the effects of systemic sumatriptan; also recorded: did not modify the effect of systemic sumatriptan | effect of concurrent systemic (IP) antagonist on the effect of systemic sumatriptan ([2]; sumatriptan 300 μg/kg IP, isamoltane 4 mg/kg IP or BRL15722 0.3 mg/kg IP, butyrate rats): reduced the effects of sumatriptan; also recorded: blocked the effect of systemic sumatriptan | effect of concurrent RVM antagonist on the effect of RVM sumatriptan ([3]; sumatriptan 10 μg RVM, antagonist 3 μg RVM, DBTC rats): blocked the effect of sumatriptan | effect of RVM antagonist on the effect of systemic sumatriptan ([3]; sumatriptan 300 μg/kg IP, antagonist 3 μg RVM, DBTC rats): failed to antagonize the effects of systemic sumatriptan; also recorded: did not modify the effect of systemic sumatriptan | effect of concurrent systemic (IP) antagonist on the effect of systemic sumatriptan ([3]; sumatriptan 300 μg/kg IP, isamoltane 4 mg/kg IP or BRL15722 0.3 mg/kg IP, DBTC rats): reduced the effects of sumatriptan; also recorded: blocked the effects of sumatriptan

CNS(=O)(=O)Cc1ccc2[nH]cc(CCN(C)C)c2c1 [sumatriptan]
reduced lumbar mechanical threshold after IV sumatriptan [4]: did not reverse the reduction in threshold | capsaicin-induced hyperemia in the sciatic nerve [5]: inhibits capsaicin-induced hyperemia | evoked release of calcitonin gene-related peptide [6]: inhibits | thermal hypersensitivity induced by intraplantar carrageenan [7]: attenuated | antinociceptive efficacy in acetic acid-induced abdominal writhing [8]: has antinociceptive efficacy | mechanical threshold of rats injected with sodium butyrate ([2]; IP sumatriptan 100, 200, 300 μg/kg): restored tactile thresholds of butyrate-treated rats in a dose dependent manner; also recorded: increased the mechanical threshold of rats injected with sodium butyrate in a time- and dose-dependent manner | behavior of rats previously injected with intracolonic vehicle ([2]; IP sumatriptan): did not modify the behavior | time for which systemic sumatriptan was active postinjection ([2]; IP, butyrate rats): 60 min | time of peak effect ([2]; IP, butyrate rats): 40 min | time point by which the effect dissipated ([2]; IP, butyrate rats): up to 100 minute | time to reversal of reduced mechanical threshold after administration ([2]; IP, butyrate rats): ≤ 20 min | A50 (and 95% CI) dose for IP sumatriptan ([2]; IP, butyrate rats, lumbar mechanical threshold): 232.6 (182.2-322.8) μg/kg | lumbar hypersensitivity / lumbar dermatome mechanical threshold after RVM administration ([2]; RVM microinjection 1, 3, 10 μg, butyrate rats): restored tactile thresholds of butyrate-treated rats in a dose dependent manner; also recorded: time- and dose-dependent attenuation of lumbar hypersensitivity | time by which the effects of RVM sumatriptan dissipated [2, 9]: ≤ 100 min | time for which the effects of RVM sumatriptan endured [2, 9]: approximately 60 minutes | time of peak effect [2, 9]: 40 min | time to reversal of reduced mechanical threshold after administration [2, 9]: ≤ 20 min | behavior of rats previously injected with intracolonic vehicle ([2]; RVM microinjection): did not modify the behavior | A50 (and 95% CI) dose for RVM sumatriptan ([2]; microinjection into the RVM, butyrate rats, lumbar mechanical threshold): 3.2 (2.0-12.5) μg | mechanical threshold, single RVM dose ([2]; sumatriptan 10 μg into the RVM, butyrate rats, v. RVM saline): increased the mechanical threshold | mechanical threshold, single dose of systemic sumatriptan ([2]; sumatriptan 300 μg/kg IP, butyrate rats, v. saline): increased the mechanical threshold | frequency of abdominal withdrawals after IV sumatriptan ([3]; 10 μg IV, DBTC rats, up to 120 minutes postinjection, data not shown): not altered | frequency of withdrawals in DBTC-injected rats ([3]; IP sumatriptan 100, 200, 300 μg/kg, day 6 after DBTC): reduced abdominal withdrawals in pancreatic rats in a dose-dependent manner; also recorded: reduced the frequency of withdrawals in DBTC-injected rats in a time- and dose-dependent manner | responses to abdominal stimulation in vehicle-injected control rats ([3]; IP sumatriptan, rats without pancreatitis): did not alter responses to abdominal stimulation | time for which systemic sumatriptan was active postinjection ([3]; IP, DBTC rats): up to 100 minutes | time of peak effect ([3]; IP, DBTC rats): 40 min | time point at which the effect dissipated ([3]; IP, DBTC rats): 120 min | time to attenuation of withdrawals after administration ([3]; IP, DBTC rats): ≤ 20 min | A50 dose (and 95% confidence interval) for IP sumatriptan ([3]; IP, day 6 after IV DBTC, frequency of abdominal withdrawals, A50 = dose producing a 50% response): 172.4 (124.5-386.7) μg/kg | frequency of withdrawals after RVM administration ([3]; RVM microinjection 1, 3, 10 μg, DBTC rats): reduced the number of withdrawals in a dose-dependent manner; also recorded: attenuated the increased frequency of withdrawals | time by which the effects of RVM sumatriptan dissipated ([3]; RVM microinjection, DBTC rats): ≤ 100 min | time for which the effects of RVM sumatriptan endured ([3]; RVM microinjection, DBTC rats): approximately 60 minutes | time of peak effect ([3]; RVM microinjection, DBTC rats): 40 min | time to attenuation of withdrawals after administration ([3]; RVM microinjection, DBTC rats): ≤ 20 min | responses to abdominal stimulation in vehicle-injected rats ([3]; RVM microinjection, rats without pancreatitis): did not alter responses to abdominal stimulation | A50 dose (and 95% CI) for RVM sumatriptan ([3]; microinjection into the RVM, DBTC rats, frequency of withdrawals): 4.3 (3.1-16.2) μg | frequency of withdrawals, single RVM dose ([3]; sumatriptan 10 μg into the RVM, DBTC rats, v. RVM saline): attenuated the frequency of withdrawals; also recorded: reduced the frequency of withdrawals | frequency of withdrawals, single dose of systemic sumatriptan ([3]; sumatriptan 300 μg/kg IP, DBTC rats, v. saline): attenuated the frequency of withdrawals; also recorded: reduced the frequency of withdrawals
